From US9884825B2, “Curcumin analogs and methods of making and using thereof” (Georgia State University Research Foundation, Inc., priority 2012, dated 2018)

Q: For `CCc1ccc(/C=C2\CN(S(=O)(=O)c3ccc(C)cc3)C/C(=C\c3ccc(CC)cc3)C2=O)cc1` [3b, 3,5-Bis(4-etbylbenzylidene)-1-tosylpiperidin-4-one], which melting point is on record?
A: 165 °C

Q: With `CCCc1ccc(/C=C2\CN(S(=O)(=O)c3ccc(C)cc3)C/C(=C\c3ccc(CCC)cc3)C2=O)cc1` [3c, 3,5-Bis(4-propylbenzylidene)-1-tosylpiperidin-4-one] as the molecule, how does the melting point read?
A: 157 °C

Q: Which melting point does the source give for `Cc1ccc(/C=C2\CN(S(=O)(=O)c3ccc(C)cc3)C/C(=C\c3ccc(C)cc3)C2=O)cc1` [3d, 3,5-Bis(4-methylbenzylidene)-1-tosylpiperidin-4-one] here?
A: 187 °C

Q: With `Cc1ccc(S(=O)(=O)N2C/C(=C\c3ccc(Cl)cc3)C(=O)/C(=C/c3ccc(Cl)cc3)C2)cc1` [3e, 3,5-Bis(4-chlorobenzylidene)-1-tosylpiperidin-4-one] as the molecule, how does the melting point read?
A: 209 °C

Q: With `COc1ccc(/C=C2\CN(S(=O)(=O)c3ccc(C)cc3)C/C(=C\c3ccc(OC)cc3)C2=O)cc1` [3f, 3,5-Bis(4-methoxybenzylidene)-1-tosylpiperidin-4-one] as the molecule, how does the melting point read?
A: 183 °C

Q: With `Cc1ccc(S(=O)(=O)N2C/C(=C\c3ccc(C(C)(C)C)cc3)C(=O)/C(=C/c3ccc(C(C)(C)C)cc3)C2)cc1` [3g, 3,5-Bis(4-tert-butylbenzylidene)-1-tosylpiperidin-4-one] as the molecule, how does the melting point read?
A: 220 °C

Q: Which melting point does the source give for `CCCCc1ccc(/C=C2\CN(S(=O)(=O)c3ccc(C)cc3)C/C(=C\c3ccc(CCCC)cc3)C2=O)cc1` [3h, 3,5-Bis(4-butylbenzylidene)-1-tosylpiperidin-4-one] here?
A: 148 °C

Q: Which melting point does the source give for `Cc1ccc(S(=O)(=O)N2C/C(=C\c3ccc(C(C)C)cc3)C(=O)/C(=C/c3ccc(C(C)C)cc3)C2)cc1` [3i, 3,5-Bis(4-isopropylbenzylidene)-1-tosylpiperidin-4-one] here?
A: 177 °C

Q: Which melting point does the source give for `Cc1ccc(/C=C2\CN(S(=O)(=O)c3ccccc3)C/C(=C\c3ccc(C)cc3)C2=O)cc1` [4a, 3,5-Bis(4-methylbenzylidene)-1-(phenylsulfonyl)piperidin-4-one] here?
A: 211 °C

Q: With `CCc1ccc(/C=C2\CN(S(=O)(=O)c3ccccc3)C/C(=C\c3ccc(CC)cc3)C2=O)cc1` [4b, 3,5-Bis(4-ethylbenzylidene)-1-(phenylsulfonyl)piperidin-4-one] as the molecule, how does the melting point read?
A: 165 °C

Q: For `CC(C)c1ccc(/C=C2\CN(S(=O)(=O)c3ccccc3)C/C(=C\c3ccc(C(C)C)cc3)C2=O)cc1` [4c, 3,5-Bis(4-isopropylbenzylidene)-1-(phenylsulfonyl)piperidin-4-one], which melting point is on record?
A: 170 °C

Q: For `CCCc1ccc(/C=C2\CN(S(=O)(=O)c3ccccc3)C/C(=C\c3ccc(CCC)cc3)C2=O)cc1` [4d, 1-(Phenylsulfonyl)-3,5-bis(4-propylbenzylidene)piperidin-4-one], which melting point is on record?
A: 153 °C

Q: For `CC(C)(C)c1ccc(/C=C2\CN(S(=O)(=O)c3ccccc3)C/C(=C\c3ccc(C(C)(C)C)cc3)C2=O)cc1` [4f, 3,5-Bis(4-tert-butylbenzylidene)-1-(phenylsulfonyl)piperidin-4-one], which melting point is on record?
A: 194 °C

Q: With `CCCCc1ccc(/C=C2\CN(S(=O)(=O)c3ccccc3)C/C(=C\c3ccc(CCCC)cc3)C2=O)cc1` [4g, 3,5-Bis(4-butylbenzylidene)-1-(phenylsulfonyl)piperidin-4-one] as the molecule, how does the melting point read?
A: 134 °C

Q: Which melting point does the source give for `COc1ccc(/C=C2\CN(S(=O)(=O)c3ccccc3)C/C(=C\c3ccc(OC)cc3)C2=O)cc1` [4h, 3,5-Bis(4-methoxybenzylidene)-1-(phenylsulfonyl)piperidin-4-one] here?
A: 217 °C

Q: Which melting point does the source give for `O=C1/C(=C/c2ccc(F)cc2)CN(S(=O)(=O)c2ccccc2)C/C1=C\c1ccc(F)cc1` [4j, 3,5-Bis(4-fluorobenzylidene)-1-(phenylsulfonyl)piperidin-4-one] here?
A: 181 °C

Q: For `Cc1ccc(/C=C2\CN(Cc3ccccc3)C/C(=C\c3ccc(C)cc3)C2=O)cc1` [5a, 1-Benzyl-3,5-bis(4-methylbenzylidene)piperidin-4-one], which melting point is on record?
A: 170 °C

Q: For `CCc1ccc(/C=C2\CN(Cc3ccccc3)C/C(=C\c3ccc(CC)cc3)C2=O)cc1` [5c, 1-Benzyl-3,5-bis-(4-ethyl-benzylidene)-piperidin-4-one], which melting point is on record?
A: 119 °C

Q: For `CC(C)c1ccc(/C=C2\CN(Cc3ccccc3)C/C(=C\c3ccc(C(C)C)cc3)C2=O)cc1` [5e, 1-Benzyl-3,5-bis(4-isopropylbenzylidene)piperidin-4-one], which melting point is on record?
A: 157 °C

Q: With `CCCCc1ccc(/C=C2\CN(Cc3ccccc3)C/C(=C\c3ccc(CCCC)cc3)C2=O)cc1` [5f, 1-Benzyl-3,5-bis(4-butylbenzylidene)piperidin-4-one] as the molecule, how does the melting point read?
A: 104 °C

Q: For `CC(C)(C)c1ccc(/C=C2\CN(Cc3ccccc3)C/C(=C\c3ccc(C(C)(C)C)cc3)C2=O)cc1` [5g, 1-Benzyl-3,5-bis(4-tert-butylbenzylidene)piperidin-4-one], which melting point is on record?
A: 167 °C

Q: Which melting point does the source give for `O=C1/C(=C/c2ccc(F)cc2)CN(Cc2ccccc2)C/C1=C\c1ccc(F)cc1` [5j, 1-Benzyl-3,5-bis(4-fluorobenzylidene)piperidin-4-one] here?
A: 159 °C

Q: For `CCN1C/C(=C\c2ccc(Br)cc2)C(=O)/C(=C/c2ccc(Br)cc2)C1` [6a, 3,5-Bis-(4-bromo-benzylidene)-1-ethyl-piperidin-4-one], which melting point is on record?
A: 178 °C

Q: For `CCN1C/C(=C\c2ccc(F)cc2)C(=O)/C(=C/c2ccc(F)cc2)C1` [6c, 1-Ethyl-3,5-bis(4-fluorobenzylidene)piperidin-4-one], which melting point is on record?
A: 114 °C

Q: For `CCc1ccc(/C=C2\CN(CC)C/C(=C\c3ccc(CC)cc3)C2=O)cc1` [6e, 1-Ethyl-3,5-bis(4-ethylbenzylidene)piperidin-4-one], which melting point is on record?
A: 178 °C

Q: For `CCN1C/C(=C\c2ccc(C(C)(C)C)cc2)C(=O)/C(=C/c2ccc(C(C)(C)C)cc2)C1` [6i, 3,5-Bis(4-tert-butylbenzylidene)-1-ethylpiperidin-4-one], which melting point is on record?
A: 111 °C

Q: Which melting point does the source give for `C#CCN1CC(=Cc2ccc(C(C)C)cc2)C(=O)C(=Cc2ccc(C(C)C)cc2)C1` [10c, 3,5-Bis(4-isopropylbenzylidene)-1-(prop-2-ynyl)piperidin-4-one] here?
A: 106 °C

Q: For `C#CCN1CC(=Cc2ccc(C(C)(C)C)cc2)C(=O)C(=Cc2ccc(C(C)(C)C)cc2)C1` [10d, 3,5-Bis(4-tert-butylbenzylidene)-1-(prop-2-ynyl)piperidin-4-one], which melting point is on record?
A: 182 °C

Q: With `C#CCN1CC(=Cc2ccc(CCC)cc2)C(=O)C(=Cc2ccc(CCC)cc2)C1` [10e, 1-(Prop-2-ynyl)-3,5-bis(4-propylbenzylidene)piperidin-4-one] as the molecule, how does the melting point read?
A: 96 °C

Q: With `CCCn1cc(CN2CC(=Cc3ccc(C)cc3)C(=O)C(=Cc3ccc(C)cc3)C2)nn1` [11a, 3,5-Bis(4-methylbenzylidene)-1-((1-propyl-1H-1,2,3-triazol-4-yl)methyl)piperidin-4-one] as the molecule, how does the melting point read?
A: 165 °C

Q: Which melting point does the source give for `CCCCCn1cc(CN2CC(=Cc3ccc(C)cc3)C(=O)C(=Cc3ccc(C)cc3)C2)nn1` [11c, 3,5-Bis(4-methylbenzylidene)-1-((1-pentyl-1H-1,2,3-triazol-4-yl)methyl)piperidin-4-one] here?
A: 169 °C

Q: With `CCCn1cc(CN2CC(=Cc3ccc(CC)cc3)C(=O)C(=Cc3ccc(CC)cc3)C2)nn1` [12a, 3,5-Bis(4-ethylbenzylidene)-1-((1-propyl-1H-1,2,3-triazol-4-yl)methyl)piperidin-4-one] as the molecule, how does the melting point read?
A: 149 °C
